Tested on: 966289-007-R4-J1-PDC complex spheroid viability
Experiment: Anticancer human tumor 966289-007-R4-J1-PDC patient-derived pancreatic adenocarcinoma cell line growth inhibition [RAS]
Conditions: for IC50: curve of first compound; for viability, T/C: stronger effect = lower value
Method in brief: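 Agents were tested in combination matrices in half-log decrements from a top concentration at or near clinical Cmax (10 microM if undetermined). Targets were multi-cell spheroids of tumour lines plus HUVEC and MSC stromal cells.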

[1] = second compound 0.000949 µM, first compound 0.0316 µM
[2] = second compound 0.000949 µM, first compound 0.1 µM
[3] = second compound 0.003 µM, first compound 0.0316 µM
[4] = second compound 0.003 µM, first compound 0.1 µM
[5] = second compound 0.00949 µM, first compound 0.0316 µM
[6] = second compound 0.00949 µM, first compound 0.1 µM
[7] = second compound 0.03 µM, first compound 0.0316 µM
[8] = second compound 0.03 µM, first compound 0.1 µM
[9] = second compound 0.0949 µM, first compound 0.0316 µM
[10] = second compound 0.0949 µM, first compound 0.1 µM
[11] = second compound 0.3 µM, first compound 0.0316 µM
[12] = second compound 0.3 µM, first compound 0.1 µM
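Note: spheroids exposed to agents for one week before readout.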
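Throughout, for viability, T/C: percent viability relative to DMSO vehicle control wells as 100%.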

`CC(C)n1nc(-c2ccc3oc(N)nc3c2)c2c(N)ncnc21` + CCn1c(-c2cc(N3CCN(C)CC3)cnc2C(C)OC)c2c3cc(ccc31)-c1csc(n1)CC(NC(=O)C1CC1C)C(=O)N1CCCC(N1)C(=O)OCC(C)(C)C2 was tested, and the IC50 (second compound 0.000949 µM) was 28.1 nM, the IC50 (second compound 0.003 µM) was 32.5 nM and the IC50 (second compound 0.00949 µM) was 30.7 nM. For the same molecule, the IC50 (second compound 0.03 µM) was 25.6 nM, the IC50 (second compound 0.0949 µM) was 26.1 nM and the IC50 (second compound 0.3 µM) was 25.4 nM. For the same molecule, the viability, T/C (second compound 0.000949 µM, first compound 0.000316 µM) was 89.3%, the viability, T/C (second compound 0.000949 µM, first compound 0.001 µM) was 116% and the viability, T/C (second compound 0.000949 µM, first compound 0.00316 µM) was 133%. It also gave a viability, T/C (second compound 0.000949 µM, first compound 0.01 µM) of 78.5%, a viability, T/C [1] of 50.5% and a viability, T/C [2] of 16.2%. It also gave a viability, T/C (second compound 0.003 µM, first compound 0.000316 µM) of 83.3%, a viability, T/C (second compound 0.003 µM, first compound 0.001 µM) of 128% and a viability, T/C (second compound 0.003 µM, first compound 0.00316 µM) of 93.6%. The viability, T/C (second compound 0.003 µM, first compound 0.01 µM) was 108%, the viability, T/C [3] was 50.6% and the viability, T/C [4] was 18.5%. It also gave a viability, T/C (second compound 0.00949 µM, first compound 0.000316 µM) of 105%, a viability, T/C (second compound 0.00949 µM, first compound 0.001 µM) of 108% and a viability, T/C (second compound 0.00949 µM, first compound 0.00316 µM) of 107%. For the same molecule, the viability, T/C (second compound 0.00949 µM, first compound 0.01 µM) was 108%, the viability, T/C [5] was 48.5% and the viability, T/C [6] was 15.2%. It also gave a viability, T/C (second compound 0.03 µM, first compound 0.000316 µM) of 107%, a viability, T/C (second compound 0.03 µM, first compound 0.001 µM) of 90.8% and a viability, T/C (second compound 0.03 µM, first compound 0.00316 µM) of 108%. For the same molecule, the viability, T/C (second compound 0.03 µM, first compound 0.01 µM) was 106%, the viability, T/C [7] was 38.1% and the viability, T/C [8] was 17.4%. For the same molecule, the viability, T/C (second compound 0.0949 µM, first compound 0.000316 µM) was 98%, the viability, T/C (second compound 0.0949 µM, first compound 0.001 µM) was 117% and the viability, T/C (second compound 0.0949 µM, first compound 0.00316 µM) was 106%. The viability, T/C (second compound 0.0949 µM, first compound 0.01 µM) was 112%, the viability, T/C [9] was 38.4% and the viability, T/C [10] was 14.7%. For the same molecule, the viability, T/C (second compound 0.3 µM, first compound 0.000316 µM) was 91.8%, the viability, T/C (second compound 0.3 µM, first compound 0.001 µM) was 107% and the viability, T/C (second compound 0.3 µM, first compound 0.00316 µM) was 112%. It also gave a viability, T/C (second compound 0.3 µM, first compound 0.01 µM) of 87.1%, a viability, T/C [11] of 41.6% and a viability, T/C [12] of 16.6%.
`C[C@@H](NC(=O)c1ncnc(N)c1Cl)c1ncc(C(=O)Nc2cc(C(F)(F)F)c(Cl)cn2)s1` + CCn1c(-c2cc(N3CCN(C)CC3)cnc2C(C)OC)c2c3cc(ccc31)-c1csc(n1)CC(NC(=O)C1CC1C)C(=O)N1CCCC(N1)C(=O)OCC(C)(C)C2 was tested, and the IC50 (second compound 0.000949 µM) was > 10000 nM, the IC50 (second compound 0.003 µM) was > 10000 nM and the IC50 (second compound 0.00949 µM) was > 10000 nM. The IC50 (second compound 0.03 µM) was > 10000 nM, the IC50 (second compound 0.0949 µM) was > 10000 nM and the IC50 (second compound 0.3 µM) was > 10000 nM. For the same molecule, the viability, T/C [1] was 125%, the viability, T/C [2] was 120% and the viability, T/C (second compound 0.000949 µM, first compound 0.316 µM) was 91.1%. The viability, T/C (second compound 0.000949 µM, first compound 1 µM) was 73%, the viability, T/C (second compound 0.000949 µM, first compound 3.16 µM) was 73.8% and the viability, T/C (second compound 0.000949 µM, first compound 10 µM) was 103%. The viability, T/C [3] was 94.6%, the viability, T/C [4] was 113% and the viability, T/C (second compound 0.003 µM, first compound 0.316 µM) was 102%. The viability, T/C (second compound 0.003 µM, first compound 1 µM) was 85.1%, the viability, T/C (second compound 0.003 µM, first compound 3.16 µM) was 97% and the viability, T/C (second compound 0.003 µM, first compound 10 µM) was 84.2%. The viability, T/C [5] was 97.3%, the viability, T/C [6] was 116% and the viability, T/C (second compound 0.00949 µM, first compound 0.316 µM) was 95.3%. For the same molecule, the viability, T/C (second compound 0.00949 µM, first compound 1 µM) was 69%, the viability, T/C (second compound 0.00949 µM, first compound 3.16 µM) was 103% and the viability, T/C (second compound 0.00949 µM, first compound 10 µM) was 110%. The viability, T/C [7] was 79.2%, the viability, T/C [8] was 77.2% and the viability, T/C (second compound 0.03 µM, first compound 0.316 µM) was 118%. For the same molecule, the viability, T/C (second compound 0.03 µM, first compound 1 µM) was 123%, the viability, T/C (second compound 0.03 µM, first compound 3.16 µM) was 117% and the viability, T/C (second compound 0.03 µM, first compound 10 µM) was 82%. It also gave a viability, T/C [9] of 76.6%, a viability, T/C [10] of 88.3% and a viability, T/C (second compound 0.0949 µM, first compound 0.316 µM) of 119%. For the same molecule, the viability, T/C (second compound 0.0949 µM, first compound 1 µM) was 105%, the viability, T/C (second compound 0.0949 µM, first compound 3.16 µM) was 111% and the viability, T/C (second compound 0.0949 µM, first compound 10 µM) was 150%. For the same molecule, the viability, T/C [11] was 60.5%, the viability, T/C [12] was 101% and the viability, T/C (second compound 0.3 µM, first compound 0.316 µM) was 130%. The viability, T/C (second compound 0.3 µM, first compound 1 µM) was 141%, the viability, T/C (second compound 0.3 µM, first compound 3.16 µM) was 116% and the viability, T/C (second compound 0.3 µM, first compound 10 µM) was 107%.
